Experiments:
L1210 leukemia cells = experiment: Cytotoxicity against L1210 leukemia cell line in vitro; type: cell-based; conditions: Mus musculus, drug concentration required to inhibit cancer cell replication by 50%, tested up to 100 μM
Protocol: (§1) The synthesized compounds were evaluated in vitro for their cytotoxicity against the L1210 and P388 leukemias, the CCRF-CEM lymphoblastic leukemia, and the B16F10 melanoma cell lines and the results are shown in Table 2.

P388 leukemia cells = experiment: Cytotoxicity against P388 leukemia cell line in vitro; type: cell-based; conditions: Mus musculus, drug concentration required to inhibit cancer cell replication by 50%, tested up to 100 μM
Protocol: as §1

[1] = test system: CCRF-CEM lymphoblastic leukemia cells; experiment: Cytotoxicity against CCRF-CEM lymphoblastic leukemia cell line in vitro; type: cell-based; conditions: Homo sapiens, drug concentration required to inhibit cancer cell replication by 50%, tested up to 100 μM
Protocol: as §1

B16F10 melanoma cells = experiment: Cytotoxicity against B16F10 melanoma cell line in vitro; type: cell-based; conditions: Mus musculus, B16-F10; drug concentration required to inhibit cancer cell replication by 50%; tested up to 100 μM
Protocol: as §1

hepatitis B virus (HBV) = experiment: Antiviral assay against hepatitis B virus in vitro; type: cell-based; conditions: maximum tested concentration 10 μM
Protocol: Antiviral assays were performed against hepatitis B virus (HBV) and human immunodeficiency virus (HIV-IIIB) in vitro as previously described. Lin, T. S.; Luo, M. Z.; Liu, M. C.; Pai, S. B.; Dutschman, G. E.; Cheng, Y. C., J. Med. Chem. 1994 37, 798-803.

[2] = test system: L1210, P388, CCRF-CEM and B16F10 cells; experiment: Cytotoxicity against the panel of neoplastic cell lines, summary in words; type: cell-based; conditions: concentrations up to 100 μM
Protocol: as §1

Nc1ncc(F)c2c1ncn2[C@@H]1O[C@H](CO)[C@@H](O)[C@H]1O [Compound 51, 4-Amino-7-fluoro-1-(β-D-ribofuranosyl)imidazo[4,5-c]pyridine]
IC50 (L1210 leukemia cells): 15 µM | IC50 (P388 leukemia cells): 100 µM | IC50 [1]: 60 µM | IC50 (B16F10 melanoma cells): 45 µM | EC50 (hepatitis B virus (HBV)): 9.2 µM | activity against these neoplastic cell lines (in words) [2]: moderate to weak activities

Nc1nc(F)c(Cl)c2ncn([C@@H]3O[C@H](CO)[C@@H](O)[C@H]3O)c12 [Compound 60, 4-Amino-7-chloro-6-fluoro-3-(β-D-ribofuranosyl)imidazo[4,5-c]pyridine]
IC50 (L1210 leukemia cells): > 100 µM | IC50 (P388 leukemia cells): > 100 µM | IC50 [1]: > 100 µM | IC50 (B16F10 melanoma cells): > 100 µM | melting point: 166 to 168 °C

Nc1[nH]c(=O)c2ncn([C@@H]3O[C@H](CO)[C@@H](O)[C@H]3O)c2c1Br [Compound 62, 6-Amino-7-bromo-1,5-dihydro-1-β-D-ribofuranosylimidazo[4,5-c]pyridin-4-one]
IC50 (L1210 leukemia cells): 3 µM | IC50 (P388 leukemia cells): 7 µM | IC50 [1]: 9 µM | IC50 (B16F10 melanoma cells): 7 µM

Nc1ncc(Cl)c2c1ncn2[C@@H]1O[C@H](CO)[C@@H](O)[C@H]1O [Compound 52, 4-Amino-7-chloro-1-(β-D-ribofuranosyl)imidazo[4,5-c]pyridine]
IC50 (L1210 leukemia cells): > 100 µM | IC50 (P388 leukemia cells): > 100 µM | IC50 [1]: > 100 µM | IC50 (B16F10 melanoma cells): > 100 µM | melting point: 169 °C (dec.)

Nc1nc(F)c(F)c2c1ncn2[C@@H]1O[C@H](CO)[C@@H](O)[C@H]1O [Compound 57, 4-Amino-6,7-difluoro-1-(β-D-ribofuranosyl)imidazo[4,5-c]pyridine]
IC50 (L1210 leukemia cells): 90 µM | IC50 (P388 leukemia cells): 90 µM | IC50 [1]: 40 µM | IC50 (B16F10 melanoma cells): 100 µM | activity against these neoplastic cell lines (in words) [2]: moderate to weak activities | melting point: 163 to 165 °C

Nc1nc(F)c(F)c2ncn([C@@H]3O[C@H](CO)[C@@H](O)[C@H]3O)c12 [Compound 58, 4-Amino-6,7-difluoro-3-(β-D-ribofuranosyl)imidazo[4,5-c]pyridine]
IC50 (L1210 leukemia cells): > 100 µM | IC50 (P388 leukemia cells): > 100 µM | IC50 [1]: > 100 µM | IC50 (B16F10 melanoma cells): > 100 µM | EC50 (hepatitis B virus (HBV)): ≥ 10 µM | melting point: 155 to 157 °C

Nc1[nH]c(=O)c2ncn([C@@H]3O[C@H](CO)[C@@H](O)[C@H]3O)c2c1Cl [Compound 61, 6-Amino-7-chloro-1,5-dihydro-1-β-D-ribofuranosylimidazo[4,5-c]pyridin-4-one]
IC50 (L1210 leukemia cells): 12 µM | IC50 (P388 leukemia cells): 40 µM | IC50 [1]: 30 µM | IC50 (B16F10 melanoma cells): 35 µM

Nc1nc(F)cc2c1ncn2[C@H]1O[C@H](CO)[C@@H](O)[C@@H]1O [Compound 44, 4-Amino-6-fluoro-1-α-D-arabinofuranosylimidazo[4,5-c]pyridine]
IC50 (L1210 leukemia cells): > 100 µM | IC50 (P388 leukemia cells): > 100 µM | IC50 [1]: > 100 µM | IC50 (B16F10 melanoma cells): > 100 µM | melting point: 198 °C (dec.)

Nc1nc(F)c(Cl)c2c1ncn2[C@@H]1O[C@H](CO)[C@@H](O)[C@H]1O [Compound 59, 4-Amino-7-chloro-6-fluoro-1-(β-D-ribofuranosyl)imidazo[4,5-c]pyridine]
IC50 (L1210 leukemia cells): 55 µM | IC50 (P388 leukemia cells): 90 µM | IC50 [1]: 60 µM | IC50 (B16F10 melanoma cells): 100 µM | EC50 (hepatitis B virus (HBV)): 7.5 µM | activity against these neoplastic cell lines (in words) [2]: moderate to weak activities | melting point: 175 to 177 °C

Nc1nc(F)cc2c1ncn2[C@@H]1O[C@H](CO)[C@@H](O)[C@H]1O [Compound 38, 4-Amino-6-fluoro-1-(β-D-ribofuranosyl)imidazo[4,5-c]pyridine]
IC50 (L1210 leukemia cells): 35 µM | IC50 (P388 leukemia cells): 50 µM | IC50 [1]: 100 µM | IC50 (B16F10 melanoma cells): 40 µM | activity against these neoplastic cell lines (in words) [2]: moderate to weak activities

CNc1nc(F)cc2c1ncn2[C@@H]1O[C@H](CO)[C@@H](O)[C@H]1O [Compound 39, 6-Fluoro-4-methylamino-1-(β-D-ribofuranosyl)imidazo[4,5-c]pyridine]
IC50 (L1210 leukemia cells): > 100 µM | IC50 (P388 leukemia cells): > 100 µM | IC50 [1]: 100 µM | IC50 (B16F10 melanoma cells): > 100 µM

Nc1nc(F)cc2c1ncn2[C@@H]1O[C@H](CO)[C@@H](O)[C@@H]1O [Compound 43, 4-Amino-6-fluoro-1-β-D-arabinofuranosylimidazo[4,5-c]pyridine]
IC50 (L1210 leukemia cells): > 100 µM | IC50 (P388 leukemia cells): > 100 µM | IC50 [1]: > 100 µM | IC50 (B16F10 melanoma cells): > 100 µM

Source: patent US6960568B2, “Nucleosides and related processes, pharmaceutical compositions and methods” (Yale University, priority 2002, dated 2005)
